Entries after “also recorded” stand apart in the source; their conditions may differ. No end group written: not given here.
Legend:
[1] = test system: four cancer cell lines (SKOV-3, ES-2, NIH:OVCAR-3, HEC-1A); design: method as in ATCC Global Bioresource Center (USA); settings: ref ATCC Global Bioresource Center (USA); cited from earlier work
Acinetobacter baumannii = test: Antibacterial assay (agar dilution), Acinetobacter baumannii; assay type: cell-based; settings: Muller Hinton’s agar, 22 h at 35 °C, clinical isolates
Procedure: (§1) The antibacterial activity of CB-LHRH’ was evaluated by the agar dilution method. Muller Hinton’s agar medium plates containing serial dilutions of CB-LHRH’ were inoculated with 2 μL of tenfold-diluted 0.5 McF bacteria and incubated for 22 h at 35 °C. The lowest concentration of CB-LHRH’ inhibiting bacterial growth was considered the minimal inhibitory concentration (MIC). Nine clinical strains of the following species were evaluated: Staphylococcus aureus, Klebsiella pneumoniae, Escherichia coli, Enterobacter cloacae, Pseudomonas aeruginosa, and Acinetobacter baumannii.

Escherichia coli = test: Antibacterial assay (agar dilution), Escherichia coli; assay type: cell-based; settings: Muller Hinton’s agar, 22 h at 35 °C, clinical isolates
Procedure: as §1

Enterobacter cloacae = test: Antibacterial assay (agar dilution), Enterobacter cloacae; assay type: cell-based; settings: Muller Hinton’s agar, 22 h at 35 °C, clinical isolates
Procedure: as §1

Klebsiella pneumoniae = test: Antibacterial assay (agar dilution), Klebsiella pneumoniae; assay type: cell-based; settings: Muller Hinton’s agar, 22 h at 35 °C, clinical isolates
Procedure: as §1

Pseudomonas aeruginosa = test: Antibacterial assay (agar dilution), Pseudomonas aeruginosa; assay type: cell-based; settings: Muller Hinton’s agar, 22 h at 35 °C, clinical isolates, listed as Cecropin B-LHRH’
Procedure: as §1

Staphylococcus aureus = test: Antibacterial assay (agar dilution), Staphylococcus aureus; assay type: cell-based; settings: Muller Hinton’s agar, 22 h at 35 °C, clinical isolates, listed as Cecropin B-LHRH’
Procedure: as §1

nude mice = test: General toxicity (survival, body weight) in ES-2 xenograft mice; assay type: in vivo, BALB/c-nu mice; settings: for surviving mice: intra-tumoral, twice daily, thirteen days later, n = 10 (PBS: 9 survived)
Procedure: (§2) Five- to six-week-old female (15–20 g) athymic nude mice (BALB/c-nu) were obtained from Shanghai SLAC Laboratory Animal Corporation, China. The animals were housed in sterile cages under laminar flow hoods in a temperature controlled room with a 12-hour light/12-hour dark cycle, and fed autoclaved chow and water ad libitum. All experiments were carried out in accordance with the guidelines for the welfare ethics of experimental animals. All the animal-related procedures were approved by the Animal Ethical Committee of Zhejiang University.
(§3) Cultured ES-2 ovarian cancer cells were resuspended at 1 × 10^7/ml and inoculated subcutaneously into the nude mouse armpit. When tumors reached 60 mm^3, they were extracted, cut into pieces of about 2 mm^3, and inoculated subcutaneously into the nude mouse armpit. When the tumors reached an average volume of about 100 mm^3, the mice were randomly divided into five groups (n = 10). Groups 1–3 received intra-tumor injection of CB-LHRH’ twice daily at 12.5, 25 or 50 mg/kg^.d, respectively.
General toxicity was evaluated based on body weight, measured weekly.

guinea pigs = test: Hypersensitization test in guinea pigs; settings: n = 6
Procedure: Under approved animal research protocol standards, the hypersensitive reaction against CB-LHRH’ (2 mg/mL, equal to 438 μM) was assessed in guinea pigs. According to the Chinese Pharmacopoeia, six animals with an average weight of 250 g (XiFengYang Special Economic Animal Farm, Huzhou, China) were administered an intraperitoneal injection of 0.5 mL of CB-LHRH’ every other day three times, while three additional animals received PBS physiological saline injections. Of the six animals administered CB-LHRH’, three received an intravenous injection of 1 mL CB-LHRH’ at day 15, and the remaining three at day 22. Allergic reactions, such as piloerection, sneezing, lacrimation, dyspnoea, and hyperspasmia, were then monitored for the next 30 min.

[2] = test system: ES-2 tumors xenografted into nude mice; test: ES-2 xenograft study in nude mice; assay type: in vivo, BALB/c-nu mice
Procedure: as §2, §3
Tumor volumes were assessed every 3 d as 0.5 × length × width^2 (where length is the longest diameter across the tumor and width the corresponding perpendicular diameter as measured by calipers). On day 13, 4 h after the last dose, mice were sacrificed, and tumors excised and weighed; tumor growth inhibition rate was derived as (1-tumor weight treated/tumor weight control) × 100 %.
Anti-tumor activity was evaluated as relative growth of tumor volume (T/C, value), the mean relative tumor volume (RTV) for the treatment group divided by the mean RTV for the control group, as follows: T/C (%) = TRTV/CRTV X 100 %. RTV = Vt/V0, where Vt is the volume on any given day, and V0 the volume at treatment start.

LHRH receptor (LHRHr) = biological target: T1, LHRH receptor (LHRHr) (Rattus norvegicus, UniProt P30969); test: radioligand saturation binding (Scatchard), rat pituitary membranes
T1 chain: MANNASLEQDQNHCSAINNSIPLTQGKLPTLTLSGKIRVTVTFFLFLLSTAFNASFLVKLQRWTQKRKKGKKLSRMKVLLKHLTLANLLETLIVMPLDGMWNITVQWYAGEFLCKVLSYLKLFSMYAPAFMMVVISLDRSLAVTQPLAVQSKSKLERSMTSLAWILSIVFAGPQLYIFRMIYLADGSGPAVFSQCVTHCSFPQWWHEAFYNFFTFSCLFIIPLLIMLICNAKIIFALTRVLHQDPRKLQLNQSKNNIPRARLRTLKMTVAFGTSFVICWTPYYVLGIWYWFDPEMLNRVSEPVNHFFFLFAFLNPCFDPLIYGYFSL

Molecule: COc1cccc2c1C(=O)c1c(O)c3c(c(O)c1C2=O)C[C@@](O)(C(=O)CO)C[C@@H]3O[C@H]1C[C@H](N)[C@H](O)[C@H](C)O1 [doxorubicin]
- resistance of the cell lines to the drug [1]: resistant

Molecule: KWKVFKKIEKMGRNIRNGIVKAGPAIAVLGEAKALSYGLRPG [CB-LHRH’]
- MIC (Acinetobacter baumannii): 1.93 to 7.72 µM
- MIC (Escherichia coli): 3.86 to 7.72 µM
- MIC (Enterobacter cloacae): 3.86 to 7.72 µM
- MIC (Klebsiella pneumoniae): 3.86 to 7.72 µM
- MIC (Pseudomonas aeruginosa): > = 15.44 μM
- MIC (Staphylococcus aureus): >15.44 µM
- surviving mice (nude mice; CB-LHRH’ 12.5 mg/kg.d): 8
- surviving mice (nude mice; CB-LHRH’ 25 mg/kg.d): 9
- surviving mice (nude mice; CB-LHRH’ 50 mg/kg.d): 7
- animal weights (nude mice; CB-LHRH’ intra-tumoral, by day 13): no differences were found in animal weights
- hypersensitivity / anaphylaxis (guinea pigs; 0.5 mL of 2 mg/mL i.p. every other day three times, then 1 mL i.v. at day 15 or 22, monitored 30 min, data not shown): no hypersensitivity; also recorded: No anaphylaxis occurred in any of the six guinea pigs; also recorded: no hypersensitive reactions in guinea pigs
- survival (guinea pigs; 0.5 mL of 2 mg/ml i.p. every other day three times): survived the 15 days of treatment

Molecule: N.N.[Cl][Pt][Cl] [Cisplatin]
- Tumor Volume, d 1 ([2]; cisplatin 0.67 mg/kg.d (2 mg/kg once every 3 days), d 1, Mean ± SD, n = 10 per group): 343.91 ± 123.06 mm^3
- Tumor Volume, d 13 ([2]; cisplatin 0.67 mg/kg.d (2 mg/kg once every 3 days), d 13, Mean ± SD, ** P < 0.01 vs PBS): 913.16 ± 142.64** mm^3
- T/C ([2]; cisplatin 0.67 mg/kg.d (2 mg/kg once every 3 days), d 13, RTV treated/RTV PBS control, ≤60 % = active): 42%
- Tumor Weight ([2]; cisplatin 2 mg/kg once every 3 days, d 13, Mean ± SD, **P < 0.01 vs PBS): 1.09 ± 0.25 ** g
- resistance of the cell lines to the drug [1]: resistant

Molecule: diphtheria toxin
- resistance of the cell lines to the drug [1]: resistant

B1: Cecropin B-LHRH' (CB-LHRH') (peptide)
chain: KWKVFKKIEKMGRNIRNGIVKAGPAIAVLGEAKALSYGLRPG
modifications: also: 125I-labelled
- Kd (LHRH receptor (LHRHr)): 253 pM

Source: article PMC4809036, “Antitumor effects of cecropin B-LHRH’ on drug-resistant ovarian and endometrial cancer cells” (BMC Cancer, 2016)
